What was measured:
Type in all cases: in vivo
Abutilon theophrasti [1] = assay: Pre-emergence herbicidal activity, glasshouse pot test; details: pre-emergence spray, rate 1000 g/ha, evaluated after 13 days, scale 0-5
How it was run: (§1)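 Sown pots sprayed pre-emergence (day 1), acetone/water + 0.5% Tween 20 vehicle. Damage rated 0–5 at 13 days.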

Alopecurus myosuroides [2] = assay: as above; details: pre-emergence spray, rate 1000 g/ha, evaluated after 13 days, scale 0-5
How it was run: as §1

Amaranthus retroflexus [3] = assay: as above; details: pre-emergence spray, rate 1000 g/ha, evaluated after 13 days, scale 0-5
How it was run: as §1

Echinochloa crus-galli [4] = assay: as above; details: pre-emergence spray, rate 1000 g/ha, evaluated after 13 days, scale 0-5
How it was run: as §1

Setaria faberi [5] = assay: as above; details: pre-emergence spray, rate 1000 g/ha, evaluated after 13 days, scale 0-5
How it was run: as §1

zea mays [6] = assay: as above; details: pre-emergence spray, rate 1000 g/ha, evaluated after 13 days, scale 0-5
How it was run: as §1

Abutilon theophrasti [7] = assay: Post-emergence herbicidal activity, glasshouse pot test; parameters: key: 0 = no damage to plant, 5 = total damage to plant; details: Application post-emergence, rate 1000 g/ha, evaluated after 13 days
How it was run: (§2)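 Test solution: technical active ingredient in acetone/water (50:50) containing 0.5% Tween 20, applied as an aqueous spray to 8-day-old plants. Evaluation at 13 days, 0–5 damage scale.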

Alopecurus myosuroides [8] = assay: as above; parameters: key: 0 = no damage to plant, 5 = total damage to plant; details: Application post-emergence, rate 1000 g/ha, evaluated after 13 days
How it was run: as §2

Amaranthus retroflexus [9] = assay: as above; parameters: key: 0 = no damage to plant, 5 = total damage to plant; details: Application post-emergence, rate 1000 g/ha, evaluated after 13 days
How it was run: as §2

Echinochloa crus-galli [10] = assay: as above; parameters: key: 0 = no damage to plant, 5 = total damage to plant; details: Application post-emergence, rate 1000 g/ha, evaluated after 13 days
How it was run: as §2

Setaria faberi [11] = assay: as above; parameters: key: 0 = no damage to plant, 5 = total damage to plant; details: Application post-emergence, rate 1000 g/ha, evaluated after 13 days
How it was run: as §2

zea mays [12] = assay: as above; parameters: key: 0 = no damage to plant, 5 = total damage to plant; details: Application post-emergence, rate 1000 g/ha, evaluated after 13 days
How it was run: as §2

| SMILES | ABUTH damage score, application pre-emergence (Abutilon theophrasti [1]) | ALOMY damage score, application pre-emergence (Alopecurus myosuroides [2]) | AMARE damage score, application pre-emergence (Amaranthus retroflexus [3]) | ECHCG damage score, application pre-emergence (Echinochloa crus-galli [4]) | SETFA damage score, application pre-emergence (Setaria faberi [5]) | ZEAMX damage score, application pre-emergence (zea mays [6]) | ABUTH herbicidal damage score (Abutilon theophrasti [7]) | ALOMY herbicidal damage score (Alopecurus myosuroides [8]) | AMARE herbicidal damage score (Amaranthus retroflexus [9]) | ECHCG herbicidal damage score (Echinochloa crus-galli [10]) | SETFA herbicidal damage score (Setaria faberi [11]) | ZEAMX herbicidal damage score (zea mays [12]) |
| --- | --- | --- | --- | --- | --- | --- | --- | --- | --- | --- | --- | --- |
| COc1ccc(N2C(=O)C(Cl)=C(C)C2O)nn1 (stereo not drawn) [BF8] | 5 | 2 | 1 | 4 | 3 | 0 | 5 | 4 | 5 | 5 | 5 | 1 |
| CC1=C(Cl)C(=O)N(c2cc(C(C)C)c(Cl)nn2)C1O (stereo not drawn) [BF10] | 4 | 4 | 3 | 5 | 5 | 2 | 5 | 5 | 5 | 5 | 5 | 3 |
| CC1=C(Cl)C(=O)N(c2cc(C(C)(C)F)c(Cl)nn2)C1O (stereo not drawn) [BF11] | 0 | 0 | 0 | 0 | 0 | 0 | 2 | 2 | 2 | 3 | 3 | 1 |
| CC1=C(Cl)C(=O)N(c2cc(C(C)(F)F)c(Cl)nn2)C1O (stereo not drawn) [BF12] | 3 | 3 | 5 | 4 | 4 | 2 | 4 | 4 | 5 | 5 | 5 | 3 |
| CCc1cc(N2C(=O)C(Cl)=C(C)C2O)nnc1Cl (stereo not drawn) [BF13] | 2 | 2 | 4 | 4 | 5 | 1 | 3 | 4 | 3 | 5 | 5 | 1 |
| CC1=C(Cl)C(=O)N(c2ccc(C#N)nn2)C1O (stereo not drawn) [BF14] | 5 | 1 | 4 | 2 | 0 | 0 | 1 | 2 | 2 | 2 | 3 | 1 |
| COC1=C(C)C(O)N(c2cc(C)c(OC)nn2)C1=O (stereo not drawn) [BG1] | 2 | 3 | 5 | 4 | 2 | 1 | 5 | 4 | 5 | 5 | 5 | 4 |
| COC1=C(C)C(O)N(c2cc(C(C)(C)C)c(Cl)nn2)C1=O (stereo not drawn) [BI1] | 4 | 4 | 3 | 5 | 5 | 4 | 5 | 5 | 5 | 5 | 5 | 4 |
| COC1=C(C)C(O)N(c2cc(C(C)C)c(Cl)nn2)C1=O (stereo not drawn) [BI2] | 4 | 4 | 4 | 5 | 5 | 3 | 5 | 5 | 5 | 5 | 5 | 3 |
| COC1=C(C)C(O)N(c2cc3c(nn2)CCCC3)C1=O (stereo not drawn) [BI3] | 0 | 1 | 2 | 4 | 0 | 0 | 2 | 3 | 3 | 3 | 5 | 1 |
| CCOC(=O)c1ccc(N2C(=O)C(OC)=C(C)C2O)nn1 (stereo not drawn) [BI4] | 0 | 0 | 0 | 0 | 0 | 0 | 0 | 0 | 0 | 0 | 0 | 0 |
| COC1=C(C)C(O)N(c2cc(C)c(C#N)nn2)C1=O (stereo not drawn) [BI5] | 0 | 0 | 0 | 0 | 0 | 0 | 0 | 0 | 0 | 0 | 0 | 0 |
| COC1=C(C)C(O)N(c2ccc(C(=O)NC(C)(C)C)nn2)C1=O (stereo not drawn) [BI6] | 5 | 4 | 5 | 4 | 5 | 2 | 5 | 4 | 5 | 5 | 5 | 4 |
| COC1=C(C)C(O)N(c2ccc(C(=O)NC(C)(C)C#N)nn2)C1=O (stereo not drawn) [BI7] | 4 | 3 | 5 | 3 | 4 | 1 | 4 | 4 | 5 | 4 | 5 | 2 |
| COC1=C(C)C(O)N(c2cc(C(F)(F)F)c(Cl)nn2)C1=O (stereo not drawn) [BI9] | 1 | 4 | 5 | 4 | 2 | 2 | 5 | 5 | 5 | 5 | 5 | 4 |
| COC1=C(C)C(O)N(c2cc(C(C)F)c(Cl)nn2)C1=O (stereo not drawn) [BI10] | 5 | 3 | 5 | 4 | 2 | 2 | 5 | 4 | 5 | 5 | 5 | 3 |

Reference: patent US9963445B2, “Chemical compounds” (SYNGENTA PARTICIPATIONS AG, priority 2013, dated 2018)
